What was measured:
[1] = system: Amaranthus caudatus var. atropurpurea explants (cotyledons and hypocotyl); experiment: Amaranthus bioassay (betacyanin formation); details: for activity (%) [10^−5 mol. l^−1 iP = 100%]: at the concentration with highest activity; for concentration with highest activity: betacyanin formation, 48 h in darkness
Procedure: The standard Amaranthus bioassay with several modifications was used to study cytokinin activity of the novel compounds. The seeds of Amaranthus caudatus var. atropurpurea were surface-sterilised in 10% (w/v) N-chlorobenzenesulfonamide for 10 min and washed 5 times with deionized water. They were placed in 14 cm Petri dishes containing paper tissues saturated with deionized water. After 72 h of cultivation at 25° C. in darkness, the roots of the seedlings were cut off. The explants, consisting of two cotyledons and hypocotyl, were placed in 5 cm Petri dishes onto two layers of filter paper soaked with 1 ml of the incubation medium containing 10 μmol of Na2HPO4—KH2PO4, pH 6.8, 5 μmol of tyrosine and the cytokinin to be tested. There were 20 explants per dish. The procedure was carried out under a green safe light in a darkroom. After 48 h of incubation at 25° C. in darkness, betacyanin was extracted by freezing the explants in 4 ml […] acetic acid. The concentration of betacyanin was determined from the absorbances at 537 nm and 620 nm as follows: ΔA=A537 nm−A620 nm. The values ΔA were plotted against the concentration tested, are means of five replicates and the entire test was repeated twice. […] The compounds to be tested were dissolved in dimethylsulfoxide (DMSO) and the solution brought up to 10^−3 M with distilled water. […] The activity obtained for 10^−5 M iP was postulated as 100%.

[2] = system: cytokinin-dependent tobacco callus Nicotiana tabacum L. cv. Wisconsin 38; experiment: cytokinin-dependent tobacco callus bioassay (plant cell division); assay type: cell-based; details: for activity (%) [10^−5 mol. l^−1 iP = 100%] / activity (%) [10^−6 mol. l^−1 Kin = 100%]: at the concentration with highest activity; for activity (%) [10^−5 mol. l^−1 iP = 100%]: relative to 10^−5 M iP; for effect on callus growth (cell proliferation) in high concentrations: concentrations exceeding 10 μM, up to 100 μM, FIG. 1; for activity (%) [10^−6 mol. l^−1 Kin = 100%]: relative to 10^−6 M Kin; for concentration with highest activity: growth of tobacco callus, fresh weight after four weeks
Procedure: Stimulatory effect of newly prepared derivatives was tested using cytokinin-dependent tobacco callus. The cytokinin-dependent tobacco callus Nicotiana tabacum L. cv. Wisconsin 38 was maintained at 25° C. in darkness on modified MS medium, containing per 1 liter: 4 μmol of nicotinic acid, 2.4 μmol of pyridoxine hydrochloroide, 1.2 μmol of thiamine, 26.6 μmol of glycine, 1.37 μmol of glutamine, 1.8 μmol of myo-inositol, 30 g of sucrose, 8 g of agar, 5.37 μmol of NAA and 0.5 μmol of the compound tested. Subcultivation was carried out every three weeks. Fourteen days before the bioassay, the callus tissue was transferred to the media without the compound tested. The biological activity was determined from the increase of the fresh callus weight after four weeks of cultivation. Six replicates were prepared for each concentration of the compound tested and the entire test was repeated twice. […] The compounds to be tested were dissolved in dimethylsulfoxide (DMSO) and the solution brought up to 10^−3 M with distilled water. […] From the obtained data, the concentration with the highest activity was selected for each compound tested. Relative activity of the compound at this concentration was calculated (Table 2). The activity obtained for 10^−6 M of the N9-unsubstituted parent cytokinins Kin and 10^−5 M iP, respectively, was postulated as 100% biological activity. […] For comparison, compounds bearing halogenbutyl substituent in position 9 were prepared and tested.
Cytokinins are known to have stimulatory effects on cell proliferation in their optimal concentrations, however typically in the concentrations exceeding 10 μM their effect on cell division turns into inhibitory (Holub et al., Plant Growth Regul. 26, 109-115, 1998). Therefore the effect of the high concentrations of the newly prepared derivatives was tested using cytokinin-dependent tobacco callus described in Example 6. The novel compounds 1, 2 and 4 were tested in high concentrations (1-100 μM) and the activities were compared with activities of their N9-unsubstituted parent cytokinins.

[3] = system: detached leaf segments of Triticum aestivum cv. Hereward; experiment: senescence bioassay on detached wheat leaf segments in light conditions (chlorophyll retention); details: for concentration with highest activity: constant light 100 μmol·m^−2·s^−1, 22° C.; for activity (%) [10^−4 mol. l^−1 Kin = 100%]: light, at the concentration with highest activity
Procedure: (§1) Seeds of winter wheat, Triticum aestivum cv. Hereward, were washed under running water for 24 hours and then sown on vermiculite soaked with Knop's solution. They were placed in the growth chamber at 25° C. with a 16/8 h light period at 50 μmol·m^−2·s^−1. After 7 days, the first leaf was fully developed and the second leaf had started to grow. A tip section of the first leaf, approximately 35 mm long, was removed from 5 seedlings and trimmed slightly to a combined weight of 100 mg. The basal ends of the five leaf tips were placed in the wells of a microtiter polystyrene plate containing 150 μL of the tested derivative solution each. The entire plate was inserted into a plastic box lined with paper tissues soaked in distilled water to prevent leaf sections from drying out. After 96 h incubation in the dark at 25° C., the leaves were removed and chlorophyll extracted by heating at 80° C. for 10 min in 5 mL of 80% ethanol (v/v). The sample volume was then restored to 5 mL by the addition of 80% ethanol (v/v). The absorbance of the extract was recorded at 665 nm. In addition, chlorophyll extracts from fresh leaves and leaf tips incubated in deionised water were measured. The results are means of five replicates and the entire test was repeated twice. […] The compounds to be tested were dissolved in dimethylsulfoxide (DMSO) and the solution brought up to 10^−3M with distilled water. […] The activity obtained for 10^−4 M Kin was postulated as 100%.
The ability of the novel compounds to retard chlorophyll degradation in detached wheat leaves was tested also in the light conditions. The experiment was performed as described in Example 7 with modifications as follows—the incubation of the leaves with the compounds was done in the constant light (100 μmol·m^−2·s^−1) at 22° C.

[4] = system: detached leaf segments of Triticum aestivum cv. Hereward; experiment: senescence bioassay on detached wheat leaf segments in dark conditions (chlorophyll retention); details: for concentration with highest activity: 96 h, 25° C., chlorophyll A665; for activity (%) [10^−4 mol. l^−1 Kin = 100%]: at the concentration with highest activity
Procedure: as §1

VP14 gene = experiment: expression of VP14 stress gene in intact maize plants (RT-PCR); assay type: in vivo, Zea mays; details: 5 μM; for Relative amount of transcripts, leaf / Relative amount of transcripts, root: 3 days, related to untreated control = 1; for effect on VP14 expression / stress response: in words
Procedure: Abscisic acid has a direct effect on up-regulation of genes involved in stress responses (Tan et al., 1997, Proc Natl Acad Sci USA, 94, 12235-40). 5-days-old maize seedlings were carefully transferred from substrate to nutrient solution supplemented with tested compound in 5 μM concentration and were cultivated for another 3 days. Transcript copy number of VP14 gene was determined in roots and leaves of treated plants independently by method of reverse transcription polymerase chain reaction.

[5] = system: Zea mays cv. CELLUX seedlings; experiment: root growth and development of maize seedlings in hydroponics; assay type: in vivo; details: FIG. 3
Procedure: To investigate in vivo effect of the new derivatives on the root growth and development, maize seeds (Zea mays cv. CELLUX, Morseva, Czech Republic) were imbibed in tap water and germinated in dark on a wetted filter paper. After 2 days, the germinated seedlings were transferred to aerated hydroponic tanks filled with Hoagland's nutrient solution (fifteens per one liter of Hoagland solution). The plants were grown in a chamber with 16 hrs light (250 μm-2 s-1) at 27° C. and 8 hrs dark period at 20° C. The nutrient solution was supplemented with 5 μM and 10 μM concentration of 6-furfurylamino-9-(2-chloroethyl)purine or 5 μM cytokinin kinetin (Kin). All solutions used for cytokinin treatment including negative control contained DMSO in final concentration of 0.01%.

[6] = system: membrane lipid peroxidation in detached leaves of Triticum aestivum cv. Hereward; experiment: membrane lipid peroxidation (MDA, TBA method) in detached wheat leaves during dark senescence
Procedure: A typical symptom associated with senescence as a direct consequence of increased reactive oxygen species is lipid peroxidation. Therefore the levels of MDA, a decomposition product of lipid peroxidation, were measured in detached wheat leaves that were exposed to the prepared novel derivatives and kinetin for four days in the dark as described in Example 7. MDA levels were measured using a thiobarbituric acid (TBA) method. In detail, 100 mg of fresh plant material was homogenized by high speed shaking in a ball mill (MM301, Retsch, Germany) with 1 mL of 80% methanol. The crude extract was centrifuged at 10,000×g for 5 min, and 100 μL aliquot of supernatant was vortexed with 100 μL of 0.5% (w/v) TBA containing 0.1% (w/v) trichloroacetic acid, and the resulting solution was then incubated for 30 min at 95° C. The samples were quickly cooled on ice and recentrifuged for 5 min at 1000×g. The absorbance of supernatant was measured at 532 nm with background subtraction at 600 nm and the amount of MDA-TBA complex was calculated from the coefficient of absorbance 155 mM^−1 cm^−1.

Structure (SMILES) | effect on callus growth (cell proliferation) in high concentrations [2] | concentration with highest activity [3] | activity (%) [10^−4 mol. l^−1 Kin = 100%] [3] | concentration with highest activity [4] | activity (%) [10^−4 mol. l^−1 Kin = 100%] [4] | activity (%) [10^−6 mol. l^−1 Kin = 100%] [2] | other results
CC(C)=CCNc1ncnc2nc[nH]c12 [6-(3-methylbut-2-en-1-yl)aminopurine, reference compound] | inhibited strongly the callus growth | – | – | – | – | – | activity (%) [10^−5 mol. l^−1 iP = 100%] [1]: 100%; concentration with highest activity [1]: 10^−5 mol. l^−1; activity (%) [10^−5 mol. l^−1 iP = 100%] [2]: 100%
BrCCCCn1cnc2c(NCc3ccco3)ncnc21 [6-furfurylamino-9-(4-bromobutyl)purine, reference compound] | – | 10^−4 mol. l^−1 | 60 (±16) % | 10^−4 mol. l^−1 | 1.2 (±2) % | 45 (±8) % | –
ClCCCCn1cnc2c(NCc3ccco3)ncnc21 [6-furfurylamino-9-(4-chlorobutyl)purine, reference compound] | – | 10^−4 mol. l^−1 | 119 (±6) % | 10^−4 mol. l^−1 | 72 (±13) % | 62 (±7) % | –
c1coc(CNc2ncnc3nc[nH]c23)c1 [6-furfurylaminopurine (Kin), 6-furfurylaminopurine, reference compound] | inhibited strongly the callus growth | 10^−4 mol. l^−1 | 100% | 10^−4 mol. l^−1 | 100% | 100% | Relative amount of transcripts, leaf (VP14 gene): 16.3 (±4.0); Relative amount of transcripts, root (VP14 gene): 3.4 (±0.8); effect on VP14 expression / stress response (VP14 gene): significantly increases VP14 expression in both root and leaves of maize; root and shoot phenotype of maize plants ([5]; 5 μM in nutrient solution): dramatic thickening and shortening of primary root with no lateral root formation
ClCCn1cnc2c(NCc3ccco3)ncnc21 [Compound 1, 6-furfurylamino-9-(2-chloroethyl)purine] | still kept their stimulatory effect | 10^−5 mol. l^−1 | 116 (±7) % | 10^−4 mol. l^−1 | 120 (±15) % | 120 (±6) % | level of membrane lipid peroxidation reduced to ([6]; dark senescence, compared to untreated control): 67%; MDA ([6]; detached wheat leaves, four days in the dark, untreated control 18.9 (±2.2)): 12.8 (±1.0) nmol/g FW; Relative amount of transcripts, leaf (VP14 gene): 1.1 (±0.3); Relative amount of transcripts, root (VP14 gene): 0.4 (±0.1); effect on VP14 expression / stress response (VP14 gene): does not induce any stress response; root and shoot phenotype of maize plants ([5]; 5 μM in nutrient solution): almost identical to DMSO treated negative control; root and shoot phenotype of maize plants ([5]; 10 μM in nutrient solution): only slightly reduced length of primary and lateral roots
BrCCn1cnc2c(NCc3ccco3)ncnc21 [Compound 2, 6-furfurylamino-9-(2-bromoethyl)purine] | – | 10^−4 mol. l^−1 | 121 (±8) % | 10^−4 mol. l^−1 | 102 (±3) % | 110 (±3) % | –
CC(C)=CCNc1ncnc2c1ncn2CCBr [Compound 3, 6-[(3-methylbut-2-en-1-yl)amino]-9-(2-bromoethyl)purine] | – | – | – | – | – | – | activity (%) [10^−5 mol. l^−1 iP = 100%] [1]: 116 (±9) %; concentration with highest activity [1]: 10^−4 mol. l^−1; activity (%) [10^−5 mol. l^−1 iP = 100%] [2]: 103 (±4) %
CC(C)=CCNc1ncnc2c1ncn2CCCl [Compound 4, 6-[(3-methylbut-2-en-1-yl)amino]-9-(2-chloroethyl)purine] | still kept their stimulatory effect | – | – | – | – | – | activity (%) [10^−5 mol. l^−1 iP = 100%] [1]: 128 (±11) %; concentration with highest activity [1]: 10^−4 mol. l^−1; activity (%) [10^−5 mol. l^−1 iP = 100%] [2]: 112 (±7) %
COc1cccc(CNc2ncnc3c2ncn3CCCl)c1 [Compound 38] | – | – | – | 10^−4 mol. l^−1 | 116 (±7) % | 106 (±5) % | concentration with highest activity [2]: 10^−5 mol. l^−1
Oc1cccc(CNc2ncnc3c2ncn3CCCl)c1 [Compound 47] | – | – | – | 10^−4 mol. l^−1 | 111 (±9) % | 111 (±2) % | concentration with highest activity [2]: 10^−5 mol. l^−1
C/C(=C\C(C)Nc1ncnc2c1ncn2CCCl)CO (stereo not drawn) [Compound 136, 6-(E)-(4-hydroxy-1,3-dimethylbut-2-en-1-ylamino)-9-(2-chloroethyl)purine] | – | – | – | 10^−4 mol. l^−1 | 114 (±4) % | 115 (±7) % | –

From patent US9220269B2, “Use of 6-substituted 9-halogenalkyl purines for regulation of growth and development of whole plants, plant cells and plant organs; novel 6-substituted 9-halogenalkyl purines” (UNIVERZITA PALACKEHO V OLOMOUCI, priority 2010, dated 2015)
